Measurements from ChEMBL document CHEMBL4483862, “Open-source discovery of chemical leads for next-generation chemoprotective antimalarials” (2018).

Tested on: Plasmodium berghei
Assay: Luciferase/luciferin-expressing antifolate-resistant parasites were used to infect a culture of HepG2 cells that were pre-incubated with compounds. Infected hepatocytes emit light due to the luciferase reaction. Assay results are presented as the percent inhibition of light emission compared to control. […]
Assay type: functional
Conditions: sporozoite; for IC90: read-out: LUCIFERASE INFECTION ASSAY - IC90
[1] = read-out: LUCIFERASE INFECTION ASSAY - IC50

Compound	IC90 [µM]	also measured
COc1cc(OC)c(C2CCN(C(=O)c3nn(-c4ccc(F)cc4)c4c3CCCC4)CC2)c(OC)c1	> 10	IC50 (FFLUC_HILL_SLOPE 11.8, FFLUC_R_SQUARED 0.584, PBLUC_HILL_SLOPE 10.3, PBLUC_R_SQUARED 0.0293, read-out: LUCIFERASE INFECTION ASSAY - IC50): > 10 µM
Cc1cc(=O)n2ncnc2n1CC(O)COc1ccc(Oc2ccccc2)cc1 (centres undefined)	8.2	IC50 (HEPG2TOX_HILL_SLOPE 1.76, HEPG2TOX_R_SQUARED 0.892, PBLUC_HILL_SLOPE 2.97, PBLUC_R_SQUARED 0.356, read-out: LUCIFERASE INFECTION ASSAY - IC50): 3.91 µM
O=C(/C=C/c1cn(-c2ccccc2)nc1-c1ccc(F)cc1)NCC1(N2CCCCC2)CCCCC1	> 10	IC50 [1]: > 10 µM
CN(C)c1ccc(-c2cnn3c(Nc4ccc(Oc5ccccc5)cc4)ccnc23)cc1	> 7.83	IC50 (PBLUC_HILL_SLOPE 2.36, PBLUC_R_SQUARED 0.164, read-out: LUCIFERASE INFECTION ASSAY - IC50): 6.65 µM
COc1ccc(N(CCC(N)=O)CC(=O)NC(C)c2ccccc2OC)cc1 (centres undefined)	> 10	IC50 [1]: > 10 µM
NS(=O)(=O)c1cc(C(=O)OCC(=O)Nc2ccc(OC(F)F)cc2)ccc1Cl	> 10	IC50 (PBLUC_HILL_SLOPE 2.5, PBLUC_R_SQUARED 0.514, read-out: LUCIFERASE INFECTION ASSAY - IC50): 6.64 µM
CC(=O)c1ccc(NC(=O)Nc2ccc3nc(-c4cccc(F)c4)nn3c2)cc1	> 10	IC50 [1]: 5.52 µM
O=C(/C=C/c1ccc([N+](=O)[O-])s1)Nc1ccc(F)cc1F	> 10	IC50 [1]: 8.88 µM
CCCn1c(NC(=O)c2cccnc2OCC)nc2ccccc21	> 10	IC50 (PBLUC_HILL_SLOPE 4.52, PBLUC_R_SQUARED 0.28, read-out: LUCIFERASE INFECTION ASSAY - IC50): 7.59 µM
Cc1ccc(C2=NN(C(=O)c3ccccc3)C(c3ccccc3O)C2)cc1 (centres undefined)	8.37	IC50 (FFLUC_HILL_SLOPE 4.22, FFLUC_R_SQUARED 0.285, HEPG2TOX_HILL_SLOPE 3.02, HEPG2TOX_R_SQUARED 0.969, PBLUC_HILL_SLOPE 1.84, PBLUC_R_SQUARED 0.813, read-out: LUCIFERASE INFECTION ASSAY - IC50): 2.54 µM
CCC(C)NC(=O)c1c(NC(=O)c2cccc(OC)c2)nc2ccc(C)cn12 (centres undefined)	> 8.67	IC50 (FFLUC_HILL_SLOPE 19.6, FFLUC_R_SQUARED 0.348, HEPG2TOX_HILL_SLOPE 6.15, HEPG2TOX_R_SQUARED 0.729, PBLUC_HILL_SLOPE 3.4, PBLUC_R_SQUARED 0.659, read-out: LUCIFERASE INFECTION ASSAY - IC50): 5.09 µM
CCc1cccc2c(C3=NNC(=Nc4ccc(S(=O)(=O)N5CCOCC5)cc4)SC3)c[nH]c12	> 10	IC50 (HEPG2TOX_HILL_SLOPE 14.9, HEPG2TOX_R_SQUARED 0.843, PBLUC_HILL_SLOPE 3.05, PBLUC_R_SQUARED 0.104, read-out: LUCIFERASE INFECTION ASSAY - IC50): 5.65 µM
Cc1ccc(NC(=O)C(Sc2nnc3n(-c4ccccc4)c(=O)c4ccccc4n23)c2ccccc2)c([N+](=O)[O-])c1 (centres undefined)	> 10	IC50 (PBLUC_HILL_SLOPE 11.5, 36.4, PBLUC_R_SQUARED 0.176, 0.319, read-out: LUCIFERASE INFECTION ASSAY - IC50): 9.56 µM
C=CC/N=c1\scc(-c2ccc(Br)s2)n1/N=C/c1ccccn1	4.27	IC50 [1]: 3.59 µM
CC(C#N)(NC(=O)CN1CCN(S(=O)(=O)c2ccc(Cl)s2)CC1)C1CC1 (centres undefined)	> 10	IC50 (PBLUC_HILL_SLOPE 12.5, PBLUC_R_SQUARED 0.341, read-out: LUCIFERASE INFECTION ASSAY - IC50): 9.26 µM
Cc1ccc(C2(C(F)(F)F)NC(=O)c3ccc(OC(C)C)cc3O2)cc1 (centres undefined)	> 10	IC50 [1]: 3.99 µM
COc1ccc(/C=C/c2nc3cc(C)c(C)cc3s2)c(OC)c1OC	8.68	IC50 [1]: 4.27 µM
COc1ccccc1/C=C(\C#N)c1ccc(C)cc1	> 13.2	IC50 (PBLUC_HILL_SLOPE 1.71, PBLUC_R_SQUARED 0.0423, read-out: LUCIFERASE INFECTION ASSAY - IC50): 10.6 µM
O=C(Nc1nc2ccccc2[nH]1)c1cccnc1Nc1ccccc1F	3.81	IC50 (HEPG2TOX_HILL_SLOPE 1.38, HEPG2TOX_R_SQUARED 0.863, PBLUC_HILL_SLOPE 3.37, PBLUC_R_SQUARED 0.741, read-out: LUCIFERASE INFECTION ASSAY - IC50): 1.98 µM
O=C(OCC(=O)N(CCc1ccccc1)Cc1ccccc1)c1ccccc1NCCO	> 10	IC50 [1]: > 10 µM

Compound	IC90 [µM]	also measured
CNc1nc2cnc(Nc3cccc(C(C)C)c3)cc2n1CCOC	> 10	IC50 (HEPG2TOX_HILL_SLOPE 0.218, HEPG2TOX_R_SQUARED 0.135, read-out: LUCIFERASE INFECTION ASSAY - IC50): > 10 µM
CCOC(=O)c1c(C)noc1/C(C)=N/Nc1cc(C(F)(F)F)cc(C(F)(F)F)c1	> 7.8	IC50 (FFLUC_HILL_SLOPE 2.91, FFLUC_R_SQUARED 0.779, PBLUC_HILL_SLOPE 12.4, PBLUC_R_SQUARED 0.288, read-out: LUCIFERASE INFECTION ASSAY - IC50): > 7.8 µM
CC1Cc2ccccc2N1C(=O)COC(=O)c1ccc([N+](=O)[O-])cc1 (centres undefined)	> 10	IC50 [1]: > 10 µM
OC(c1ccc(Cl)c(F)c1)c1nc(-c2cccc(C(F)(F)F)c2)c[nH]1 (centres undefined)	> 8.9	IC50 (FFLUC_HILL_SLOPE 12.1, FFLUC_R_SQUARED 0.0756, read-out: LUCIFERASE INFECTION ASSAY - IC50): > 8.9 µM
O=C(NCc1ccc(-c2cccs2)s1)c1ccc([N+](=O)[O-])s1	> 9.42	IC50 (PBLUC_HILL_SLOPE 15, PBLUC_R_SQUARED 0.438, read-out: LUCIFERASE INFECTION ASSAY - IC50): 8.73 µM
COc1ccc(-c2ccc3ncc(-c4ccoc4)n3n2)cc1OC	> 10	IC50 (PBLUC_HILL_SLOPE 16.2, PBLUC_R_SQUARED 0.0483, read-out: LUCIFERASE INFECTION ASSAY - IC50): > 10 µM
Cc1cccc(N2CCN(CC(=O)c3ccc[nH]3)CC2)c1C	> 10	IC50 [1]: > 10 µM
O=C(Nc1ccc(N2CCOCC2)cn1)c1ccccc1	> 10	
Cc1cccn2c(=O)cc(CN3C(=O)NC(C)(c4ccc(F)cc4)C3=O)nc12 (centres undefined)	> 2	IC50 (HEPG2TOX_HILL_SLOPE 5.95, HEPG2TOX_R_SQUARED 0.496, PBLUC_HILL_SLOPE 2.16, PBLUC_R_SQUARED 0.177, read-out: LUCIFERASE INFECTION ASSAY - IC50): 1.96 µM
Cn1cc(C(=O)Nc2ccc(Sc3ccc(Br)cc3)cc2)cn1	6.49	IC50 (HEPG2TOX_HILL_SLOPE 16.3, HEPG2TOX_R_SQUARED 0.811, PBLUC_HILL_SLOPE 1.99, PBLUC_R_SQUARED 0.873, read-out: LUCIFERASE INFECTION ASSAY - IC50): 2.15 µM
O=C(Nc1ccc(OC(F)(F)F)cc1)Nc1ccc2nc(-c3ccsc3)nn2c1	9.37	IC50 (FFLUC_HILL_SLOPE 13.4, FFLUC_R_SQUARED 0.266, PBLUC_HILL_SLOPE 2.61, PBLUC_R_SQUARED 0.893, read-out: LUCIFERASE INFECTION ASSAY - IC50): 4.04 µM
COc1cc(-c2cn3c(-c4ccc5ncccc5c4)cnc3cn2)ccc1O	4.57	IC50 (HEPG2TOX_HILL_SLOPE 2.88, HEPG2TOX_R_SQUARED 0.967, PBLUC_HILL_SLOPE 7.35, PBLUC_R_SQUARED 0.638, read-out: LUCIFERASE INFECTION ASSAY - IC50): 3.39 µM
CC(C)(C)c1ccccc1NC(=O)Nc1nc(C(N)Cc2ccc(Cl)cc2)cs1 (centres undefined)	5.51	IC50 (PBLUC_HILL_SLOPE 4.24, PBLUC_R_SQUARED 0.754, read-out: LUCIFERASE INFECTION ASSAY - IC50): 3.28 µM
O=C1C=C(Nc2ccccc2)/C(=N\c2ccccc2)c2c1oc1ccc(Nc3ccccc3)cc21	> 10	IC50 (FFLUC_HILL_SLOPE 1.75, FFLUC_R_SQUARED 0.754, HEPG2TOX_HILL_SLOPE 1.61, HEPG2TOX_R_SQUARED 0.885, read-out: LUCIFERASE INFECTION ASSAY - IC50): > 10 µM
O=C(OCCSc1ccc([N+](=O)[O-])c2nonc12)c1ccccc1	> 9.56	IC50 (FFLUC_HILL_SLOPE 1.36, FFLUC_R_SQUARED 0.568, HEPG2TOX_HILL_SLOPE 2.89, HEPG2TOX_R_SQUARED 0.849, PBLUC_HILL_SLOPE 0.85, PBLUC_R_SQUARED 0.48, read-out: LUCIFERASE INFECTION ASSAY - IC50): 5.19 µM
FC(F)(F)c1c(-c2nc(-c3ccc(Cl)cc3)no2)cnn1-c1ccccc1	1.19	IC50 (PBLUC_HILL_SLOPE 1.45, PBLUC_R_SQUARED 0.734, read-out: LUCIFERASE INFECTION ASSAY - IC50): 0.262 µM
O=C1OC(c2ccc(C(=O)c3ccccc3)cc2)=N/C1=C1\CCCCCN1	> 10	IC50 (HEPG2TOX_HILL_SLOPE 4.29, HEPG2TOX_R_SQUARED 0.683, PBLUC_HILL_SLOPE 20.1, PBLUC_R_SQUARED 0.207, read-out: LUCIFERASE INFECTION ASSAY - IC50): 9.14 µM
Cc1sc2nc3c4ccccc4c(NCc4ccccc4CN4CCOCC4)nn3c(=O)c2c1C	> 10	IC50 (HEPG2TOX_HILL_SLOPE 7.8, HEPG2TOX_R_SQUARED 0.205, PBLUC_HILL_SLOPE 3, PBLUC_R_SQUARED 0.458, read-out: LUCIFERASE INFECTION ASSAY - IC50): 5.95 µM
CC(C)c1ccc(/C=C/C(=O)NN=c2nc[nH]c3ccccc23)cc1	> 10	IC50 (HEPG2TOX_HILL_SLOPE 2.75, HEPG2TOX_R_SQUARED 0.845, PBLUC_HILL_SLOPE 8.02, PBLUC_R_SQUARED 0.305, read-out: LUCIFERASE INFECTION ASSAY - IC50): 8.64 µM
NC(=O)c1ccsc1NC(=O)Cc1coc2cc3c(cc12)CCC3	3.88	IC50 (FFLUC_HILL_SLOPE 3.24, FFLUC_R_SQUARED 0.678, PBLUC_HILL_SLOPE 11.8, PBLUC_R_SQUARED 0.833, read-out: LUCIFERASE INFECTION ASSAY - IC50): 3.22 µM
